Measured values as given in publication PMC10746708, “A small molecule iCDM-34 identified by in silico screening suppresses HBV DNA through activation of aryl hydrocarbon receptor” (Cell Death Discovery, 2023).

Key:
PXB cells = experiment: Cell viability of HBV-infected PXB cells (RealTime-Glo MT); type: cell-based; conditions: 3 and 30 µM, with or without 10 nM ETV, 7 days
Description: (§1) PXB cells (primary cultured human hepatocytes) were purchased from PhoenixBio (Higashi-Hiroshima, Japan) and cultured on collagen type I-coated 96- or 24-well plates in hepatocyte clonal growth medium at 37 °C and 5 % CO2 as previously described. RealTime-Glo MT Cell Viability Assay (Promega) and XTT assay were performed according to a previously established protocol.

[1] = molecular target: interaction between HBx and DNA binding protein 1 (UniProt P03165+Q16531); experiment: HBx - DNA binding protein 1 interaction; conditions: data not shown
interaction between HBx and DNA binding protein 1, sequence (Q16531 whole entry): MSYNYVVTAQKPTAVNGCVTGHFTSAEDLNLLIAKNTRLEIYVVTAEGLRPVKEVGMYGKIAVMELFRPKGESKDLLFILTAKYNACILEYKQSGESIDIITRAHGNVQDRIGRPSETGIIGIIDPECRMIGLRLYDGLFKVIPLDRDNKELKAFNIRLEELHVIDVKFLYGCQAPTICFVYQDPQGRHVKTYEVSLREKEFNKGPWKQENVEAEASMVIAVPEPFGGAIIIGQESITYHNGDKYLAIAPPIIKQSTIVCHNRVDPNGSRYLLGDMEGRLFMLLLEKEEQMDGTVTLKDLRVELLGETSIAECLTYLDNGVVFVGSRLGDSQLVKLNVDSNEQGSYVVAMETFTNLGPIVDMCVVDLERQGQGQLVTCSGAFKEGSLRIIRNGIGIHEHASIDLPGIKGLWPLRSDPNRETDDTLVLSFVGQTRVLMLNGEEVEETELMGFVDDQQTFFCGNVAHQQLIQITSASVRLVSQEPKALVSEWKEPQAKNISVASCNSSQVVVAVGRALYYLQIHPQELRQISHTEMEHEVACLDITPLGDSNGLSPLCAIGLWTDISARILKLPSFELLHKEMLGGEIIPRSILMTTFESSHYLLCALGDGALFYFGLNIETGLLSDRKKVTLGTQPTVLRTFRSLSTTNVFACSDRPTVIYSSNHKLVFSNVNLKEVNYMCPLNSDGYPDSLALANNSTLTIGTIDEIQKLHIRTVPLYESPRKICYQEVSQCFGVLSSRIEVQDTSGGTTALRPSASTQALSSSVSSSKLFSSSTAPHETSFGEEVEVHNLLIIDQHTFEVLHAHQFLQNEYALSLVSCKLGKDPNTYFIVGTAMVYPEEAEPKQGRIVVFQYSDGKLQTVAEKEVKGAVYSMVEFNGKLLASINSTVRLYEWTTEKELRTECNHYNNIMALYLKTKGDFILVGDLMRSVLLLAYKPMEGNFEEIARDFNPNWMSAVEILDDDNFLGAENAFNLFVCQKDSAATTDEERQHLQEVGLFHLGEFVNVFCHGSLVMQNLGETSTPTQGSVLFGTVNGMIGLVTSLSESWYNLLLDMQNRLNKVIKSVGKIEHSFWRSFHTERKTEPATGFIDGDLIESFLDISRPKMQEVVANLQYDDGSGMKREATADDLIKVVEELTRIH
interaction between HBx and DNA binding protein 1, sequence (P03165 whole entry): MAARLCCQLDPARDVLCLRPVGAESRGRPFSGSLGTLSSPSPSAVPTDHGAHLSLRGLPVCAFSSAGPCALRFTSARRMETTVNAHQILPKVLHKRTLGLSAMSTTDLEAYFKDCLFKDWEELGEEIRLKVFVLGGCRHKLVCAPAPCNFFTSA

HBV genotype C [2] = experiment: Anti-HBV activity in HBV-infected PXB cells (HBV DNA by qPCR); type: cell-based
Description: as §1
PXB cells were plated on 96-well plate and infected with three genome equivalents per cell of HBV C_AT [33], and the medium was changed every 3 or 4 days. […] After treatment with these compounds, cellular DNA, medium DNA, and total RNA were automatically purified as per our previously established protocol. RNA purification of total RNA from cultured cells in the 24-well plate was performed using the RNeasy Mini Kit (Qiagen, Germantown, MD, USA) according to the manufacturer’s instructions.
HBV DNA copy numbers were determined using TaqMan Gene Expression Master Mix (Thermo Fisher Scientific) or Probe qPCR Mix (Takara Bio), specific primers, and probes in a qPCR system (Light Cycler 96 System, Roche, Basel, Switzerland or CFX96 Touch Real-Time PCR Detection System, Bio-Rad Laboratories, Hercules, CA, USA). The specific primers and probe used for detection of HBV DNA were as follows: forward primer: 5′-[…]-3′, reverse primer: 5′-[…]-3′, and probe: 5′-[FAM] […][TAM]-3′.

HBV-infected PXB cells [3] = experiment: pgRNA and OAS1 mRNA by qPCR in HBV-infected PXB cells; type: cell-based, human; conditions: 7 days
Description: mRNA expression levels were measured by qPCR using specific primers or sets of specific primers and probe. RNA was reverse transcribed using PrimeScript RT Master Mix (Takara Bio, Shiga, Japan) to synthesize complementary DNA (cDNA). OAS1,glyceraldehyde 3-phosphate dehydrogenase (GAPDH), β-actin mRNA expression levels were measured using specific primers and TB Green Premix Ex Taq II (Takara Bio). AhR (Hs00169233_m), CDK1 (Hs00938777_m), CDK2 (Hs01548894_m) mRNA expression levels were measured using specific probe and primer sets (Thermo Fisher Scientific, Waltham, MA, USA) and Probe qPCR mix (Takara Bio) in a CFX96 Touch Real-Time PCR Detection System (Bio-Rad Laboratories, Hercules, CA, USA). The specific primers used in this study were OAS1 (forward primer: 5′-[…]-3′, reverse primer: 5′-[…]-3′), reverse primer: 5′-[…]-3′, and GAPDH (forward primer: 5′-[…]-3′, reverse primer: 5′-[…]-3′). β-actin (forward primer: forward primer: 5′-[…]-3′ and reverse primer: 5′-[…]-3′). Expression levels were determined using the 2^–ΔΔCt method and were normalized to endogenous β-actin mRNA expression levels.
PXB cells were plated on 96-well plate and infected with three genome equivalents per cell of HBV C_AT [33], and the medium was changed every 3 or 4 days. […]

HCV replicon cells = experiment: HCV replicon luciferase assay; type: cell-based; conditions: 0.05–30 µM, 3 days
Description: HCV replicon cells were plated on clear and white 96-well plates (TPP, 92096 and Greiner Bio-one, 655083) in DMEM, high glucose, GlutaMAX Supplement (Thermo Fisher Scientific, Waltham, MA, USA) containing 10 % fetal bovine serum, penicillin, and streptomycin. After 1 day, the cells were treated with 0.05–30 µM of iCDM-17 and iCDM-34 for 3 days. The quantity of HCV replicons was measured by a luciferase assay using Steady-Glo Luciferase Assay System (Promega, Madison, WI, USA). The cell viability was measured by XTT assay using Cell proliferation kit II (Roche, Mannheim, Germany) according to the established protocol.

[4] = Liver microsomal stability, human; type: in vitro ADME; conditions: human liver microsomes
Description: (§2) Liver microsome stability studies (human, mouse, and rat) were performed at Sumika Chemical Analysis Service (Osaka, Japan) by following an established procedure. A mixture of 1 μM of substrate, 0.5 mg protein/mL of microsomes, and […] β-NADPH was incubated for 30 or 60 min and % remaining substrate was quantitatively measured by LC-MS/MS.

[5] = Liver microsomal stability, rat; type: in vitro ADME; conditions: rat liver microsomes
Description: as §2

HBV genotype C [6] = experiment: Anti-HBV activity in human hepatocyte-chimeric mice (liver HBV DNA); type: in vivo, human hepatocyte-chimeric mice (PXB-mice); conditions: 21 days
Description: PXB-mice (human liver chimeric cDNA-uPA^wild/+/SCID male mice) were generated by PhoenixBio. HBV genotype C was then inoculated into the mice via i.v.. After attaining 1.2 × 10^8–3.5 × 10^8 copies/mL of the serum HBV DNA levels, vehicle (10% 2-hydroxypropyl-beta-cyclodextrin and 10% polyethylene glycol 300) or 1 mg/kg iCDM-34 was i.v. injected with or without administration of 0.03 mg/kg ETV orally once a day for 21 days (n = 4). DNA was purified from the liver and its concentration was measured using NanoDrop Spectrophotometer (Thermo Fisher Scientific), followed by measurement of HBV DNA levels by qPCR according to a previously established method. The experimental procedures using the PXB-mice was approved by the Animal Ethics Committee of PhoenixBio.

HBV-infected PXB cells [7] = experiment: Microarray gene expression analysis of HBV-infected PXB cells; type: cell-based, human
Description: PXB cells cultured in 24-well plates were infected with three genome equivalents per cell of HBV C_AT. After 24 days of infection, the cells were treated with 0.3 and 30 µM iCDM-34 and 1,000 IU/mL IFN-α (Sumitomo Dainippon Pharma, Osaka, Japan) for 7 days (n = 3). Total RNA was extracted from the treated cells and subjected to microarray analysis. The raw and normalized data were uploaded to NCBI Gene Expression Omnibus (GSE180646).
To explore the biological interpretation of the transcriptome data, the canonical pathways and upstream causal networks were identified using knowledge-based functional analysis software from Ingenuity Pathways Analysis (IPA; Ingenuity Systems, Redwood City, CA, USA). […] A statistical measure of the IPA analysis is the activation z-score, which can be used to identify likely regulating molecules based on a statistically significant pattern match of up- and downregulation, and to predict the activation state (either activated or inhibited) of a putative regulator [37]. An absolute value of z-score more than 2 was considered significant.

[8] = 1 μM substrate, 0.5 mg protein/mL, 30 min
[9] = 1 μM substrate, 0.5 mg protein/mL, 60 min

## O=C(Nc1ccc(Br)cc1)c1ccn(Cn2cc([N+](=O)[O-])cn2)n1 [iCDM-34]
PXB cells
  cytotoxicity (cell viability): no cytotoxicity
[1]
  inhibition of interaction between HBx and DNA binding protein 1: did not inhibit
HBV genotype C [2]; 30 µM, 7 days
  medium HBV DNA: inhibited
HBV genotype C [2]; 3 and 30 µM with 10 nM ETV, 7 days
  effect of combination with ETV on cellular HBV DNA: additive effects
HBV genotype C [2]; 3 and 30 µM, 7 days, dose-dependent
  cellular HBV DNA: decreased
HBV genotype C [2]; Hepatitis B virus, 168 h, HBV genotype C-infected PXB cells, 0.03–100 µM for 7 days, qPCR, read-out: half maximal inhibitory concentration, cellular HBV DNA
  IC50: 19.7 µM
HBV-infected PXB cells [3]; 30 µM
  pgRNA expression level: significantly decreased
HBV-infected PXB cells [3]; 0.0003–30 μM
  expression of OAS1 (ISG): no increase
HCV replicon cells
  HCV replication (replicon luciferase): suppressed
[4]
  half-life at 1 μM: 8.43 h
[4]; [8]
  remaining at 0.5 h, 1 μM: 96.2 ± 3.2%
[4]; [9]
  remaining at 1 h, 1 μM: 94.1 ± 3.3%
[5]
  half-life at 1 μM: 3.32 h
[5]; [8]
  remaining at 0.5 h, 1 μM: 90.2 ± 0.5%
[5]; [9]
  remaining at 1 h, 1 μM: 85.2 ± 0.3%
HBV genotype C [6]; 1 mg/kg i.v. once a day, alone
  HBV DNA in the liver, single agent: did not reduce
HBV genotype C [6]; 1 mg/kg i.v. plus ETV 0.03 mg/kg p.o. once a day
  HBV DNA in the liver, combination with ETV compared with ETV alone: drastically suppressed
HBV-infected PXB cells [7]
  expression of ADH1B, G6PC, ADH1A, TAT, SLC38A3, and SLC22A7: suppressed
  expression of CYP1A1, CYP1A2, CYP4A11, CYP1B1, AKR1B15, and AKR1B10: upregulated
